# Tested on: 301 cancer cell lines from different tumor types (OncoPanel; HD Biosciences)
# Assay: 2D cell viability inhibition assay (CellTiter-Glo) in cancer cell line panel
# Assay type: cell-based
# Details: Homo sapiens
# Protocol: In a larger screening study, compound 1 was evaluated across a broad cancer cell line panel (OncoPanel; HD Biosciences) composed of 301 cancer cell lines from different tumor types.
# 2D cell viability inhibition assays were performed in multiwell plates seeded with cells from the panel. After seeding, the plates were cultured overnight in a humidified incubator at 37° C. to promote adherence. Assays were initiated in individual wells by adding either DMSO as a vehicle control, growth media as a blank, or serially diluted compound 1 (10 μM to 0.0005 μM with 1:3 serial dilution). Cultures were incubated for 168 hours after which the number of viable cells in each test well was assessed using the CellTiter-Glo® Luminescent Cell Viability Assay. Luminescence readouts were performed using an EnVision® Multilabel Reader and the compound 1 readouts were normalized to the DMSO control readouts, expressed as a percent of the control. Outliers were flagged out by visual inspection. Percent of control was plotted against the corresponding compound 1 concentration and the absolute IC50 value was determined using four-parameter logistic non-linear regression as the concentration where inhibition was 50% of the control. For maximum inhibition <50%, the absolute IC50 was reported as >10. In addition to EC50 and IC50, AUC was determined and was normalized to the area corresponding to theoretical no-inhibition (the rectangular area defined by the compound dose range and 0 to 100 in y). Emax was recorded as the minimum in y with the compound dose range. For those cell lines where Emax>40, EC50 was manually set to 10 μM. A hierarchical clustering algorithm based on Euclidean distance between the standardized input values and “Ward.D” method as implemented in R hclust function was used to visualize the compound 1 cellular potency data. The sensitive/moderate/resistant calls for each cell line was determined by visually inspecting the resulting clustering dendrogram. All the analyses were done in R Core Team.
smiles,measurement,setting,value
"CC(C)c1ccc(N(C)c2ccc3c(c2)OCC[C@H]3CNc2cnccc2C(=O)O)cc1 [Compound 1, 3-({[(4R)-7-{methyl[4-(propan-2-yl)phenyl]amino}-3,4-dihydro-2H-1-benzopyran-4-yl]methyl}amino)pyridine-4-carboxylic acid]",EC50,"NCI-H1944, NCIH1944 cell line",≥ 10000 nM
same,IC50,"NCI-H1944, NCIH1944 cell line",16.3 nM
same,EC50,"NCI-H1975, NCIH1975 cell line",25.5 nM
same,IC50,"NCI-H1975, NCIH1975 cell line",34.8 nM
same,IC50,"NCI-H2009, 168 h, NCIH2009, lung, adenocarcinoma, 168 hours",> 10000 nM
same,EC50,"NCI-H2081, NCIH2081 cell line",1.46 nM
same,IC50,"NCI-H2081, NCIH2081 cell line",2.57 nM
same,EC50,"NCI-H2087, NCIH2087 cell line",2.58 nM
same,IC50,"NCI-H2087, NCIH2087 cell line",3.56 nM
same,EC50,"NCI-H2122, NCIH2122 cell line",16.7 nM
same,IC50,"NCI-H2122, NCIH2122 cell line",23.9 nM
same,EC50,"NCI-H2171, NCIH2171 cell line",≥ 10000 nM
same,IC50,"NCI-H2171, NCIH2171 cell line",> 10000 nM
same,IC50,"NCI-H2228, NCIH2228 cell line",179 nM
same,EC50,"NCI-H2286, NCIH2286 cell line",2.53 nM
same,IC50,"NCI-H2286, NCIH2286 cell line",3.51 nM
same,EC50,"NCI-H2291, NCIH2291 cell line",7.55 nM
same,IC50,"NCI-H2291, NCIH2291 cell line",8.4 nM
same,IC50,"NCI-H2347, NCIH2347 cell line",13.1 nM
same,EC50,"NCI-N87, NCIN87 cell line",3.94 nM
same,IC50,"NCI-N87, NCIN87 cell line",4.29 nM
same,EC50,"NOMO-1, NOMO1 cell line",3.92 nM
same,IC50,"NOMO-1, NOMO1 cell line",5.01 nM
same,EC50,"NUGC-3, NUGC3 cell line",5.63 nM
same,IC50,"NUGC-3, NUGC3 cell line",7.72 nM
same,EC50,"NUGC-4, NUGC4 cell line",6.62 nM
same,IC50,"NUGC-4, NUGC4 cell line",10.6 nM
same,IC50,"ONS-76, 168 h, ONS76, central nervous system, NS, 168 hours",> 10000 nM
same,IC50,"OS-RC-2, OSRC2 cell line",> 10000 nM
same,IC50,"OVCAR-3, 168 h, NIHOVCAR3, ovary, NS, 168 hours",> 10000 nM
same,EC50,"P31-FUJ, P31FUJ cell line",2.43 nM
same,IC50,"P31-FUJ, P31FUJ cell line",4.32 nM
same,EC50,"PANC-1, PANC1 cell line",51.5 nM
same,IC50,"PANC-1, PANC1 cell line",68.6 nM
same,EC50,"PC-3, PC3 cell line",11.8 nM
same,IC50,"PC-3, PC3 cell line",14.5 nM
same,EC50,"PF-382, PF382 cell line",1.89 nM
same,IC50,"PF-382, PF382 cell line",3.69 nM
same,EC50,"PLC-PRF-5, PLCPRF5 cell line",16.4 nM
same,IC50,"PLC-PRF-5, PLCPRF5 cell line",28 nM
same,IC50,"RCM-1, RCM1 cell line",> 10000 nM
same,EC50,"RD, RD cell line",4.79 nM
same,IC50,"RD, RD cell line",9.29 nM
same,EC50,"REH, REH cell line",1.32 nM
same,IC50,"REH, REH cell line",1.21 nM
same,EC50,"RKO, RKO cell line",8.5 nM
same,IC50,"RKO, RKO cell line",11.5 nM
same,EC50,"RL, RL cell line",1.88 nM
same,IC50,"RL, RL cell line",2.99 nM
same,IC50,"RPMI-7951, 168 h, RPMI7951, skin, NS, 168 hours",> 10000 nM
same,EC50,"RPMI-8226, RPMI8226 cell line",10.4 nM
same,IC50,"RPMI-8226, RPMI8226 cell line",12.5 nM
same,EC50,"RT112/84, RT11284 cell line",4.14 nM
same,IC50,"RT112/84, RT11284 cell line",4.43 nM
same,IC50,"SAOS-2, 168 h, SAOS2, bone, NS, 168 hours",> 10000 nM
same,EC50,"SCC-4, SCC4 cell line",5.57 nM
same,IC50,"SCC-4, SCC4 cell line",10.5 nM
same,IC50,"SCC-9, 168 h, SCC9, upper aerodigestive tract, squamous cell carcinoma, 168 hours",> 10000 nM
same,IC50,"SCC-15, 168 h, SCC15, upper aerodigestive tract, squamous cell carcinoma, 168 hours",> 10000 nM
same,IC50,"SCC-25, 168 h, SCC25, upper aerodigestive tract, squamous cell carcinoma, 168 hours",> 10000 nM
same,EC50,"SCaBER, SCABER cell line",8.93 nM
same,IC50,"SCaBER, SCABER cell line",15.2 nM
same,EC50,"SH-SY5Y, SHSY5Y cell line",4.32 nM
same,IC50,"SH-SY5Y, SHSY5Y cell line",13.5 nM
same,EC50,"SK-BR-3, SKBR3 cell line",4.32 nM
same,IC50,"SK-BR-3, SKBR3 cell line",7.14 nM
same,EC50,"SK-CO-1, SKCO1 cell line",≥ 10000 nM
same,IC50,"SK-CO-1, SKCO1 cell line",30.6 nM
same,IC50,"SK-HEP1, 168 h, SKHEP1, liver, adenocarcinoma, 168 hours",> 10000 nM
same,EC50,"SK-LU-1, SKLU1 cell line",8.49 nM
same,IC50,"SK-LU-1, SKLU1 cell line",40 nM
same,IC50,"SK-MEL3, SKMEL3 cell line",472 nM
same,EC50,"SK-MEL-1, SKMEL1 cell line",0.536 nM
same,IC50,"SK-MEL-1, SKMEL1 cell line",9.24 nM
same,EC50,"SK-MEL-2, SKMEL2 cell line",27 nM
same,IC50,"SK-MEL-2, SKMEL2 cell line",140 nM
same,EC50,"SK-MEL-5, SKMEL5 cell line",14.8 nM
same,IC50,"SK-MEL-5, SKMEL5 cell line",16.8 nM
same,IC50,"SK-MEL-24, 168 h, SKMEL24, skin, NS, 168 hours",> 10000 nM
same,EC50,"SK-MEL-28, SKMEL28 cell line",5.63 nM
same,IC50,"SK-MEL-28, SKMEL28 cell line",5.56 nM
same,EC50,"SK-MES-1, SKMES1 cell line",24.3 nM
same,IC50,"SK-MES-1, SKMES1 cell line",47.5 nM
same,IC50,"SK-N-SH, 168 h, SKNSH, autonomic ganglia, NS",> 10000 nM
same,IC50,"SK-OV-3, 168 h, SKOV3, ovary, adenocarcinoma, 168 hours",> 10000 nM
same,EC50,"SNB-19, SNB19 cell line",7.01 nM
same,IC50,"SNB-19, SNB19 cell line",11.6 nM
same,EC50,"SNU-5, SNU5 cell line",82.4 nM
same,IC50,"SNU-5, SNU5 cell line",146 nM
same,EC50,"SNU-16, SNU16 cell line",3.69 nM
same,IC50,"SNU-16, SNU16 cell line",4.22 nM
same,EC50,"SNU-398, SNU398 cell line",9.63 nM
same,IC50,"SNU-398, SNU398 cell line",18 nM
same,IC50,"SNU-C1, 168 h, SNUC1, large intestine, adenocarcinoma, 168 hours",> 10000 nM
same,IC50,"SUP-T1, SUPT1 cell line",3330 nM
same,EC50,"SW48, SW48 cell line",≥ 10000 nM
same,IC50,"SW48, SW48 cell line",50 nM
same,EC50,"SW480, SW480 cell line",7.73 nM
same,IC50,"SW480, SW480 cell line",9.79 nM
same,EC50,"SW780, SW780 cell line",11.8 nM
same,IC50,"SW780, SW780 cell line",13 nM
same,IC50,"SW837, 168 h, SW837, large intestine, adenocarcinoma, 168 hours",> 10000 nM
same,IC50,"SW1417, 168 h, SW1417, large intestine, adenocarcinoma, 168 hours",> 10000 nM
same,EC50,"SW1463, SW1463 cell line",9.18 nM
same,IC50,"SW1463, SW1463 cell line",9.24 nM
same,EC50,"SW1710, SW1710 cell line",27.3 nM
same,IC50,"SW1710, SW1710 cell line",63.3 nM
same,IC50,"SW1990, SW1990 cell line",> 10000 nM
same,EC50,"SW-620, SW620 cell line",26.3 nM
same,IC50,"SW-620, SW620 cell line",29.3 nM
same,EC50,"T84, T84 cell line",10.1 nM
same,IC50,"T84, T84 cell line",21 nM
same,EC50,"TALL-1, TALL1 cell line",0.895 nM

# From US20250134874A1, “PHARMACEUTICAL FORMULATIONS COMPRISING 3-({[(4R)-7-{METHYL[4-(PROPAN-2-YL)PHENYL]AMINO}-3,4-DIHYDRO-2H-1-BENZOPYRAN-4-YL]METHYL}AMINO)PYRIDINE-4-CARBOXYLIC ACID” (TACHYON THERAPEUTICS, INC., priority 2021, published 2025)
